Tests used:
MCF7 breast tumour cells = experiment: MCF7 proliferation assay; format: cell-based, human; settings: for IC50: Homo sapiens, MCF7, 96 h, 4 days incubation, crystal violet staining; for antiproliferative activity, MCF7 (in words): summary of Tab. 2
Procedure: Cultivated human MCF7 breast tumour cells (ATCC HTB-22) were plated out in a density of 5000 cells/measurement point in 200 μl of growth medium (RPMI1640, 10% foetal calf serum, 2 mU/mL insulin, 0.1 nM oestradiol) in a 96-well multititre plate. After 24 hours, the cells from a plate (zero plate) were stained with crystal violet (see below), while the medium in the other plates was replaced by fresh culture medium (200 μl) to which the test substances had been added in various concentrations (0 μM, and in the range 0.1-30 μM; the final concentration of the solvent dimethyl sulphoxide was 0.5%). The cells were incubated in the presence of the test substances for 4 days. The cell proliferation was determined by staining the cells with crystal violet: the cells were fixed by adding 20 μl/measurement point of an 11% strength glutaraldehyde solution at room temperature for 15 min. After the fixed cells had been washed three times with water, the plates were dried at room temperature. The cells were stained by adding 100 μl/measurement point of a 0.1% strength crystal violet solution (pH adjusted to pH 3 by adding acetic acid). After the stained cells had been washed three times with water, the plates were dried at room temperature. The dye was dissolved by adding 100 μl/measurement point of a 10% strength acetic acid solution, and the extinction was determined by photometry at a wavelength of 595 nm. The percentage change in cell growth was calculated by normalizing the measurements to the extinctions of the zero point plate (=0%) and the extinction of the untreated (0 μM) cells (=100%). The IC50 values were determined by means of a 4-parameter fit using the company's own software.

KDR (VEGFR2) = target: T1, KDR (VEGFR2) (Homo sapiens, UniProt P35968); experiment: KDR kinase assay; format: biochemical; settings: 10 μM ATP, 22° C., 45 min, HTRF
T1 construct: made in house; host or cells: E. coli
T1 sequence (P35968 20-1356, species assumed): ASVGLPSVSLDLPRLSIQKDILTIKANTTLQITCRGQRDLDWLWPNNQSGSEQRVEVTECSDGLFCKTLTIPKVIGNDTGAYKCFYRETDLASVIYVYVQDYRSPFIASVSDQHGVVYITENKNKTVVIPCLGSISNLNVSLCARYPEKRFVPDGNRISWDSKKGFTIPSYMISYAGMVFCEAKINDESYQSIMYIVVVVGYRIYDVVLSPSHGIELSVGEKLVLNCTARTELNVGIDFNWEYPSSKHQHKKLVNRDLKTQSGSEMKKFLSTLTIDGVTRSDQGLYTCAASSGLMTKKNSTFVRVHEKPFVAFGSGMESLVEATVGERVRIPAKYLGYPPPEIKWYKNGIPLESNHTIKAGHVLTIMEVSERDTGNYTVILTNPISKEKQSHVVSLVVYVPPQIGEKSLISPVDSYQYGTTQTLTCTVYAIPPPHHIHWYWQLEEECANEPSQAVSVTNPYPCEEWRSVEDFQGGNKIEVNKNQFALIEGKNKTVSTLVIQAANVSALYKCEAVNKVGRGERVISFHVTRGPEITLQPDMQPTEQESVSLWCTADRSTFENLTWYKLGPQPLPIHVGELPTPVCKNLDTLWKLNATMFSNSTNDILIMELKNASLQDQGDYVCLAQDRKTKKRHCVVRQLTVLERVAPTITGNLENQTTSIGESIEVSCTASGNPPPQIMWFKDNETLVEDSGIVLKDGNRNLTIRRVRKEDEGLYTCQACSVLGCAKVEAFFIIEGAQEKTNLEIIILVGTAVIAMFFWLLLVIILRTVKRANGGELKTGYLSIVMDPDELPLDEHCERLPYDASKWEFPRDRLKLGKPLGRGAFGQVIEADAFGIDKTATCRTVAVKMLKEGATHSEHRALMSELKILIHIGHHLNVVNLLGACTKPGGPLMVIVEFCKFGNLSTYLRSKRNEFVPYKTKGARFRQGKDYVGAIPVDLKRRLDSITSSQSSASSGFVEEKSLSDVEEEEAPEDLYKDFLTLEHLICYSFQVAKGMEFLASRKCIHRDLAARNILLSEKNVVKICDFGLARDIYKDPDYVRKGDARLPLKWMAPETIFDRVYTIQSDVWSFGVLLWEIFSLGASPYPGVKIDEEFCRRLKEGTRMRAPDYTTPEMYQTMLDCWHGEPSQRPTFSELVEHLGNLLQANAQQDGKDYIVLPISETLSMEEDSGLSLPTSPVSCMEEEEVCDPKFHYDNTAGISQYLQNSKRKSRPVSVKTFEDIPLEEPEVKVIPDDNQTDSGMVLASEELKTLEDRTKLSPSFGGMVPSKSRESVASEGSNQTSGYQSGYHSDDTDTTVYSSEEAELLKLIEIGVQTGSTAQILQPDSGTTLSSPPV
Procedure: Recombinant KDR protein was expressed in E. coli and then purified. The kinase substrate used was the biotinylated peptide having the amino acid sequence biotin-DFGLARDMYDKEYYSVG, which was purchased from Biosynthan. KDR [test volume 5 μl] was incubated in the presence of various concentrations of test substances (0 μM, and 10 measurement points within the range 0.001-20 μM in duplicate) in assay buffer [50 mM HEPES pH 7.0, 25.0 mM MgCl2, […], 0.1 mM Na ortho-vanadate, 1.0 mM dithiothreitol, 0.001% NP40, 10 μM ATP, 0.03 μM substrate peptide […], 1.0% dimethyl sulphoxide] at 22° C. for 45 min. The reaction was stopped by adding 5 μl of an EDTA/detection solution [50 mM HEPES pH 7.5, 125 mM EDTA, 0.2% BSA, 0.1 μM streptavidin-XLent (from CisBio), 2 nM PT66-Eu (from PerkinElmer)]. The fluorescence emission at 620 nm and 665 nm after excitation with light of the wavelength 350 nm was measured in a Rubystar HTRF instrument from BMG Labsystems.
The measured data (ratio of emission 665 divided by emission 620 multiplied by 10 000) were normalized to 0% inhibition (enzyme reaction without inhibitor) and 100% inhibition (all assay components apart from enzyme). The IC50 values were determined by means of a 4-parameter fit using the company's own software.

CDK2/CycE = target: T2, CDK2/CycE (Homo sapiens, UniProt P24941); experiment: CDK2/CycE kinase assay; format: biochemical; settings: 0.5 μM ATP, histone IIIS, 22° C., 10 min
T2 construct: GST; purchased ProQinase GmbH, Freiburg; host or cells: baculovirus-infected insect cells (Sf9)
Procedure: Recombinant CDK2- and CycE-GST fusion proteins, purified from baculovirus-infected insect cells (Sf9), were purchased from ProQinase GmbH, Freiburg. The histone IIIS used as kinase substrate was purchased from Sigma.
(§1) CDK2/CycE (50 ng/measurement point) was incubated in the presence of various concentrations of test substances (0 μM, and within the range 0.01-100 μM) in assay buffer [50 mM Tris/HCl pH 8.0, 10 mM MgCl2, 0.1 mM Na ortho-vanadate, 1.0 mM dithiothreitol, 0.5 μM ATP, 10 μg/measurement point histone IIIS, 0.2 μCi/measurement point ^33P-gamma-ATP, 0.05% NP40, 1.25% dimethyl sulphoxide] at 22° C. for 10 min. The reaction was stopped by adding EDTA solution (250 mM, pH 8.0, 15 μl/measurement point).
15 μl of each reaction mixture were loaded onto P30 filter strips (from Wallac), and non-incorporated ^33P-ATP was removed by washing the filter strips three times in 0.5% strength phosphoric acid for 10 min each time.
(§2) After the filter strips had been dried at 70° C. for 1 hour, the filter strips were covered with scintillator strips (MeltiLex™ A, from Wallac) and baked at 90° C. for 1 hour. The amount of incorporated ^33P (substrate phosphorylation) was determined by scintillation measurement in a gamma radiation counter (Wallac).

CDK1/CycB = target: T3, CDK1/CycB (Homo sapiens, UniProt P06493); experiment: CDK1/CycB kinase assay; format: biochemical; settings: 0.5 μM ATP, histone IIIS, 22° C., 10 min
T3 construct: GST; purchased ProQinase GmbH, Freiburg; host or cells: baculovirus-infected insect cells (Sf9)
T3 sequence (P06493 whole entry): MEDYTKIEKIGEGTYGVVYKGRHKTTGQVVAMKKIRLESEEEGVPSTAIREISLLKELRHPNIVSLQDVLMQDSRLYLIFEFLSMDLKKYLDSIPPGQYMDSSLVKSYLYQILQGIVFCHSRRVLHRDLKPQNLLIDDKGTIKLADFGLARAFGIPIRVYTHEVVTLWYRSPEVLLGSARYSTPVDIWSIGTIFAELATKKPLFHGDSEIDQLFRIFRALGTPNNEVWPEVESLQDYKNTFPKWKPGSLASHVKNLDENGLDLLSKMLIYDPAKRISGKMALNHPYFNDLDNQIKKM
T3 sequence (P14635 whole entry partner): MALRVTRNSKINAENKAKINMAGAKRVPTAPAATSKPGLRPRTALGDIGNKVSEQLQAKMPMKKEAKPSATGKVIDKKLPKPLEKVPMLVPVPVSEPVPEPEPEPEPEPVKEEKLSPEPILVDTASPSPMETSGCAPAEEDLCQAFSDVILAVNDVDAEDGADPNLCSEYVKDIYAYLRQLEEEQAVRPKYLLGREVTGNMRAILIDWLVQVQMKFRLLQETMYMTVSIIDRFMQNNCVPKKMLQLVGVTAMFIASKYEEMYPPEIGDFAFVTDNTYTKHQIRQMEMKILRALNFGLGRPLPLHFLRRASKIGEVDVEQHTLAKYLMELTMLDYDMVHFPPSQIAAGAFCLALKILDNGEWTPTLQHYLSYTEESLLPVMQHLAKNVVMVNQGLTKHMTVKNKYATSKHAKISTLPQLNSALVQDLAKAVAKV
Procedure: as §1, with “Recombinant CDK1- and CycB-GST fusion proteins, purified from baculovirus-infected insect cells (Sf9), were purchased from ProQinase GmbH, Freiburg. The histone IIIS used as kinase substrate can be purchased from Sigma. CDK1/CycB (200” for “CDK2/CycE (50”
as §2, with “15 μl of each reaction mixture were loaded onto P30 filter strips (from Wallac), and non-incorporated ^33P-ATP was removed by washing the filter strips three times in 0.5% strength phosphoric acid for 10 min each time. After” for “After”

Aurora-C = target: T4, Aurora-C (Homo sapiens, UniProt Q9UQB9); experiment: Aurora-C kinase assay; format: biochemical; settings: for IC50: 3 μM ATP, 22° C., 90 min
T4 construct: made in house; host or cells: transiently transfected HEK293 cells
T4 sequence (Q9UQB9 1-309): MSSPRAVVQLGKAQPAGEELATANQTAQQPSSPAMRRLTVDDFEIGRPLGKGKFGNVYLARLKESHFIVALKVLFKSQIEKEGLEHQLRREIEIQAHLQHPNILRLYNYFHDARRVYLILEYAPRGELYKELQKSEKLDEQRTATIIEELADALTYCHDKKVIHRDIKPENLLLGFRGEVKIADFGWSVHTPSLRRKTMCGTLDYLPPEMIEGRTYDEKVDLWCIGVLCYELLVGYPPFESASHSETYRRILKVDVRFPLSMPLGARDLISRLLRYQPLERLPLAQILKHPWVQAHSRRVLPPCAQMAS
Procedure: Recombinant Aurora-C protein was expressed in transiently transfected HEK293 cells and then purified. The kinase substrate used was the biotinylated peptide having the amino acid sequence biotin-FMRLRRLSTKYRT, which was purchased from Jerini AG in Berlin.
Aurora-C [5 nM in the test mixture, test volume 5 μl] was incubated in the presence of various concentrations of test substances (0 μM and 10 measurement points within the range 0.001-20 μM in duplicate) in assay buffer [25 mM HEPES pH 7.4, 0.5 mM MnCl2, 0.1 mM Na ortho-vanadate, 2.0 mM dithiothreitol, 0.05% bovine serum albumin (BSA), 0.01% Triton X-100, 3 μM adenosine trisphosphate (ATP), 0.67 nCi/μl gamma-^33P-ATP, 2.0 μM substrate peptide biotin-FMRLRRLSTKYRT, 1.0% dimethyl sulphoxide] at 22° C. for 90 min. The reaction was stopped by adding 12.5 μl of an EDTA/detection solution [16 mM EDTA, 40 mM ATP, 0.08% Triton X-100, 4 mg/ml PVT streptavidin SPA beads (from Amersham)]. After incubation for 10 minutes, the SPA beads were pelleted by centrifugation at 1000×G for 10 minutes. Measurement took place in a PerkinElmer Topcount scintillation counter. The measured data were normalized to 0% inhibition (enzyme reaction without inhibitor) and 100% inhibition (enzyme reaction in the presence of 0.1 μM staurosporine (from Sigma)). The IC50 values were determined by means of a 4-parameter fit using the company's own software.

| IC50 (MCF7 breast tumour cells) [nM] | IC50 (KDR (VEGFR2)) [nM] | IC50 (CDK2/CycE) [nM] | IC50 (CDK1/CycB) [nM] | IC50 (Aurora-C) [nM] | inhibition of Aurora C kinase (in words) (Aurora-C; summary of Tab. 1) | Structure (SMILES) | antiproliferative activity, MCF7 (in words) (MCF7 breast tumour cells) |
| --- | --- | --- | --- | --- | --- | --- | --- |
| 170 | 35 | 6 | 50 | 400 |  | C[C@@H](Nc1nc(Nc2ccc(S(C)=NS(C)(=O)=O)cc2)ncc1Br)C(C)(C)O (mixture of isomers) [Example 18, (RS)—S-{4-[(5-Bromo-4-{[(R)-2-hydroxy-1,2-dimethylpropyl]amino}pyrimidin-2-yl)amino]phenyl}-N-mesyl-S-methylsulphimide] |  |
| 900 | 22 | 99 | 620 | 360 | inhibits | Cc1ccc(S(=O)(=O)N=S(C)c2ccc(Nc3ncc(Br)c(N[C@H](C)CO)n3)cc2)cc1 (mixture of isomers) [Example 8, (RS)—S-{4-[(5-Bromo-4-{[(R)-2-hydroxy-1-methylethyl]amino}pyrimidin-2-yl)-amino]phenyl}-S-methyl-N-(tolylsulphonyl)sulphimide] |  |
| 110 | 37 | 21 | 110 | 570 |  | C[C@@H](Nc1nc(Nc2ccc(S(C)=NS(=O)(=O)c3ccccc3)cc2)ncc1Br)C(C)(C)O (mixture of isomers) [Example 15, (RS)—S-{4-[(5-Bromo-4-{[(R)-2-hydroxy-1,2-dimethylpropyl]amino}pyrimidin-2-yl)amino]phenyl}-S-methyl-N-(phenylsulphonyl)sulphimide] | excellent antiproliferative activity |

Second part, the compound before the results:

| Structure (SMILES) | IC50 (MCF7 breast tumour cells) [nM] | IC50 (KDR (VEGFR2)) [nM] | IC50 (CDK2/CycE) [nM] | IC50 (CDK1/CycB) [nM] | IC50 (Aurora-C) [nM] | inhibition of Aurora C kinase (in words) (Aurora-C; summary of Tab. 1) | antiproliferative activity, MCF7 (in words) (MCF7 breast tumour cells) |
| --- | --- | --- | --- | --- | --- | --- | --- |
| C[C@@H](Nc1nc(Nc2ccc(S(C)=NS(=O)(=O)Cc3ccccc3)cc2)ncc1Br)C(C)(C)O (mixture of isomers) [Example 13, (RS)—N—(Benzylsulphonyl)-S-{4-[(5-bromo-4-{[(R)-2-hydroxy-1,2-dimethylpropyl]-amino}pyrimidin-2-yl)amino]phenyl}-S-methylsulphimide] | 110 | 15 | 28 | 140 | 660 |  | excellent antiproliferative activity |
| C[C@@H](Nc1nc(Nc2ccc(S(C)=NS(=O)(=O)C(F)(F)F)cc2)ncc1Br)C(C)(C)O (mixture of isomers) [Example 14, (RS)—S-{4-[(5-Bromo-4-{[(R)-2-hydroxy-1,2-dimethylpropyl]amino}pyrimidin-2-yl)amino]phenyl}-S-methyl-N-[(trifluoromethyl)sulphonyl]sulphimide] | 110 | 70 | 39 | 120 | 990 |  | excellent antiproliferative activity |
